In one series the test system is uterus growth. Nature of the series: Uterus growth test on infant rats (test on antiestrogenic action, antiuterotropic action). The format is in vivo, rat. To be noted: infant female rats, inhibition relative to EB control; for Antiuterotropic Action % Inhib. p.o.: 0.3 (mg/kg of body weight) p.o. once daily for three days with 0.5 μg estradiolbenzoate s.c.
The target in a further series is T1, 17β-HSD2 (Homo sapiens, UniProt P37059).
T1 construct: Microsome solution: intestinal microsomes (In Vitro Technologies); protein content: 24 mg/ml; tissue In Vitro Technologies; host or cells: intestinal microsomes
T1 sequence (P37059 1-387): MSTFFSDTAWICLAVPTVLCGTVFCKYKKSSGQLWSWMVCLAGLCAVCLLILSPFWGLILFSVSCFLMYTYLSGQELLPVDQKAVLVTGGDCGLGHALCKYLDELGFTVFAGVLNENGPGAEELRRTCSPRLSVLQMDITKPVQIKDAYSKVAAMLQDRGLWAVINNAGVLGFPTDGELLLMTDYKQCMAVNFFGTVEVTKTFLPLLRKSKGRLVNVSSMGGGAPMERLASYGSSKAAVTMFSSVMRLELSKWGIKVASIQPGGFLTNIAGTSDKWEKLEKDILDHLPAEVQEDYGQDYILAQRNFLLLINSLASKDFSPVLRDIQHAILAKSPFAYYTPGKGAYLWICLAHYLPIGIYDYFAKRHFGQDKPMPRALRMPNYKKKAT
Kind of series: Determination of metabolic stability: in-vitro 17β-HSD test, intestinal microsomes. The format is in vitro ADME. Conditions: LC/MS/MS; for metabolic stability in intestinal microsomes: 37° C., 0-60 minutes, 0.3 μmol in the test batch. The text has this:
Determination of metabolic stability: in-vitro 17β-HSD test
17β-HSD2 mediates the intestinal enzymatic dehydrogenization of an OH group in 17-position of the sterane skeleton into a ketone group.
For this test, the following materials are used:
Na-Phosphate buffer: 100 mmol of Na2HPO4×2H2O and 100 mmol of NaH2PO4×H2O
Test substance solution of
11β-Fluoro-7α-{5-[methyl(8,8,9,9,9-pentafluorononyl)amino]pentyl}-17α-methylestra-1,3,5(10)-triene-3,17β-diol (compound 1, as a representative of the compounds of general formula I) and
11β-Fluoro-7α-{5-[methyl(8,8,9,9,9-pentafluorononyl)amino]pentyl-estra-1,3,5(10)-triene-3,17β-diol (compound 2): […] in MeOH (0.3 μmol in the test batch).
Cofactor solution: 2 ml of glucose-6-phosphate (160 mmol)/MgCl2 (80 mmol) mixture is added to 400 μl of a glucose-6-phosphate-dehydrogenase solution, and then 15.6 mg of NADP and 13.4 mg of NAD are added.
Microsome solution: intestinal microsomes (In Vitro Technologies; protein content: 24 mg/ml; CYP450 content: 0.058 nmol/mg of protein)
In the water bath, it is thawed at 37° C. (˜60 seconds) and diluted with Na-phosphate buffer to a concentration of 5 mg/ml of protein.
In each case, 170 μl/well of the buffer and 5 μl/well of the test substance solutions are introduced into the corresponding wells, whereby double values are applied for each measuring time (0, 10, 20, 30, 45 and 60 minutes).
In each case, 250 μl of ice-cold MeOH is added to the 0-minute values. Then, 25 μl of microsome solution and 50 μl of cofactor solution are added immediately to all wells. The samples of the 0-minute values are stored without incubation at ˜−20° C. for about 24 hours. The other samples are incubated in each case for 10, 20, 30, 45 and 60 minutes at 37° C., and the dehydrogenation reaction is stopped after these times by the addition of 250 μl of ice-cold MeOH in each case. The samples are stored until measurement per LC/MS/MS at ˜−20° C., for about 24 hours and centrifuged at 3000 rpm before analysis, whereby the supernatant is measured.
(§1) The concentrations of the test substances measured per LC/MS/MS and the resulting 17 ketone product are reproduced in FIGS. 2a-2f.

Series [1] in a line: Metabolic stability in liver microsomes. The format is in vitro ADME. To be noted: LC/MS/MS.
Source text: as §1
A general note: Liver microsomes are vesicles of endoplasmic reticulum, rich in cytochrome P450 enzymes.

For the molecule `CN(CCCCCCCC(F)(F)C(F)(F)F)CCCCC[C@@H]1Cc2cc(O)ccc2[C@@H]2[C@@H]1[C@@H]1CCC(=O)[C@@]1(C)C[C@@H]2F` [compound 3, 11β-fluoro-7α-{5-[methyl(8,8,9,9,9-pentafluorononyl)amino]pentyl}-estra-1,3,5(10)-trien-3-ol-17-one], in the series on uterus growth, the “Antiuterotropic Action % Inhib. p.o.” value was 76%.

As for “11β-Fluoro-7α-{5-[methyl(8,8,9,9,9-pentafluorononyl)amino]pentyl}-17α-methylestra-1,3,5(10)-triene-3,17β-diol [compound 1]”, at 17β-HSD2, the “metabolic stability in intestinal microsomes” value is on record as “metabolically stable” and the “formation of the 17-ketone product of the 17βHSD-reaction” value (“formation” below) is on record as “does not occur in any of the tissues”. In series [1], the “formation” value is on record as “does not occur in any of the tissues” and the “metabolic stability in liver microsomes” value was “not in liver microsomes”.

For “11β-Fluoro-7α-{5-[methyl(7,7,8,8,9,9,9-heptafluorononyl)amino]pentyl}-17α-methylestra-1,3,5(10)-triene-3,17β-diol [No. 8]”, in the series on uterus growth, the “Antiuterotropic Action % Inhib. p.o.” value is listed as 94%.

As to `CN(CCCCCCCC(F)(F)C(F)(F)F)CCCCC[C@@H]1Cc2cc(O)ccc2[C@@H]2[C@@H]1[C@@H]1CC[C@H](O)[C@@]1(C)C[C@@H]2F` [compound 2, reference compound], on 17β-HSD2, the “metabolic stability in intestinal microsomes” value is given as “degraded” and the “formation” value is given as “the corresponding 17-ketone is produced”.

On to “11β-Fluoro-7α-{5-[methyl(7,7,8,8,9,9,10,10,10-nonafluorodecyl)amino]pentyl}-17α-methylestra-1,3,5 (10)-triene-3,17β-diol [No. 7]”, for which the “Antiuterotropic Action % Inhib. s.c.” value in the series with uterus growth (0.03 (mg/kg of body weight) s.c., once daily for three days with 0.5 μg estradiolbenzoate s.c.) was 59%.
